Data: ChEMBL document CHEMBL1156590, “Stereoselectivity of binding of alpha-(N-benzylamino)benzylphosphonic acids to prostatic acid phosphatase” (Bioorg Med Chem Lett, 2008)

biological target: T1, Prostatic acid phosphatase (Homo sapiens, UniProt P15309); experiment: Inhibition of human prostatic acid phosphatase
T1 sequence (P15309 whole entry): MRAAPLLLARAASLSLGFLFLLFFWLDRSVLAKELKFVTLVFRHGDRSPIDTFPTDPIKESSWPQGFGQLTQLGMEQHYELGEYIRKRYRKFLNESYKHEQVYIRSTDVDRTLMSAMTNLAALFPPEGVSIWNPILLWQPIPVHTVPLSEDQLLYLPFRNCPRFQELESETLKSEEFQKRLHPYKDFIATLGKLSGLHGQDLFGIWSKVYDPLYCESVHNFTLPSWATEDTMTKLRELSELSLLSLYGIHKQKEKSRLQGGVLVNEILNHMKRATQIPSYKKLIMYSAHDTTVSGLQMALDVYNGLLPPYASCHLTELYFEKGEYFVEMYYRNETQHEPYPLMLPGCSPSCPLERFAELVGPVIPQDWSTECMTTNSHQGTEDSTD

Going from `COc1ccc([C@H](N[C@@H](C)c2ccccc2)P(=O)(O)O)cc1` to `COc1ccc([C@@H](N[C@H](C)c2ccccc2)P(=O)(O)O)cc1`, the IC50 falls from 1070 nM to 18 nM (59-fold).

First: C[C@@H](N[C@H](c1ccccc1)P(=O)(O)O)c1ccccc1
Second: C[C@H](N[C@@H](c1ccccc1)P(=O)(O)O)c1ccccc1
The IC50 of the first is 47-fold lower: 26 nM for the first, 1210 nM for the second.
